Test results from ChEMBL document CHEMBL1201862, “PubChem BioAssay data set” (2004).
Where “and” joins values, the source holds several entries; their conditions need not be identical. Equal entries are not always repeated.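 Briefly, cells in 96-well plates were exposed to five compound concentrations for 48 h, and endpoints were estimated by linear interpolation. Abbreviation: GI50, concentration required for 50% inhibition of growth.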 Calls of active or inactive are those of the source. Cut-off read from the data, not from the text of the source: active = GI50 up to about 1.1 µM and inactive = higher. Where a SMILES comes first, the peptide text is derived from it. The star is where a group is joined. Cbz = O=C(OCc1ccccc1)*; OBn = c1ccc(CO*)cc1

How the values were obtained:
Assay in all cases: NCI-60 cell line screen, 48 h
786-0 = test system: 786-0
MOLT-4 = test system: MOLT-4
A549 = test system: A549
ACHN = test system: ACHN
RPMI-8226 = test system: RPMI-8226
KM12 = test system: KM12
HCT-15 = test system: HCT-15
T47D = test system: T47D
TK-10 = test system: TK-10
HL-60 = test system: HL-60
U-251 = test system: U-251
SR = test system: SR
HOP-92 = test system: HOP-92
UO-31 = test system: UO-31
UACC-257 = test system: UACC-257
NCI-H226 = test system: NCI-H226
MCF7 = test system: MCF7
EKVX = test system: EKVX
BT-549 = test system: BT-549
RXF 393 = test system: RXF 393
HT-29 = test system: HT-29
Hs-578T = test system: Hs-578T
SK-MEL-2 = test system: SK-MEL-2
K562 = test system: K562
CCRF-CEM = test system: CCRF-CEM
M14 = test system: M14
SK-MEL-5 = test system: SK-MEL-5
HCT-116 = test system: HCT-116
OVCAR-5 = test system: OVCAR-5
A498 = test system: A498
NCI-H460 = test system: NCI-H460
SNB-19 = test system: SNB-19
MDA-N = test system: MDA-N
SW-620 = test system: SW-620
NCI-H23 = test system: NCI-H23
SK-MEL-28 = test system: SK-MEL-28
OVCAR-8 = test system: OVCAR-8
PC-3 = test system: PC-3
SN12C = test system: SN12C
MDA-MB-231 = test system: MDA-MB-231
COLO 205 = test system: COLO 205
HCC 2998 = test system: HCC 2998
IGROV-1 = test system: IGROV-1
SNB-75 = test system: SNB-75
Malme-3M = test system: Malme-3M
HOP-62 = test system: HOP-62
CAKI-1 = test system: CAKI-1
DU-145 = test system: DU-145
MDA-MB-435 = test system: MDA-MB-435
SF-539 = test system: SF-539
NCI-H522 = test system: NCI-H522
SK-OV-3 = test system: SK-OV-3
LOX IMVI = test system: LOX IMVI
SF-295 = test system: SF-295
OVCAR-3 = test system: OVCAR-3
SF-268 = test system: SF-268
UACC-62 = test system: UACC-62
NCI/ADR-RES = test system: NCI/ADR-RES
OVCAR-4 = test system: OVCAR-4

Compound: COC(=O)C(Cc1ccc(O)cc1)NC(=O)C(CC(=O)OCc1ccccc1)NC(=O)OCc1ccccc1 (centres undefined) (Cbz-Asp(OBn)-Tyr-OMe; configuration not given here)
- GI50 (786-0): 18.2 µM (inactive)
- GI50 (MOLT-4): 24.7 µM (inactive)
- GI50 (A549): 20.7 µM (inactive)
- GI50 (ACHN): 20.1 µM (inactive)
- GI50 (RPMI-8226): 24.9 µM (inactive)
- GI50 (KM12): 22.6 µM (inactive)
- GI50 (HCT-15): 18.3 µM
- GI50 (T47D): 19.5 µM (inactive)
- GI50 (TK-10): 18.2 µM (inactive)
- GI50 (HL-60): 25.6 µM (inactive)
- GI50 (U-251): 20.3 µM (inactive)
- GI50 (SR): 22.8 µM (inactive)
- GI50 (HOP-92): 51.1 µM (inactive)
- GI50 (UO-31): 22.9 µM (inactive)
- GI50 (UACC-257): 21.2 µM (inactive)
- GI50 (NCI-H226): 21.4 µM (inactive)
- GI50 (MCF7): > 10 µM (inactive)
- GI50 (EKVX): 23.8 µM (inactive)
- GI50 (BT-549): 22.6 µM (inactive)
- GI50 (RXF 393): 14 µM (inactive)
- GI50 (HT-29): 17.1 µM (inactive)
- GI50 (Hs-578T): 24.9 µM (inactive)
- GI50 (SK-MEL-2): 19.2 µM (inactive)
- GI50 (K562): 42.5 µM (inactive)
- GI50 (CCRF-CEM): 53.2 µM (inactive)
- GI50 (M14): 22.2 µM (inactive)
- GI50 (SK-MEL-5): 18.2 µM (inactive)
- GI50 (HCT-116): 19.3 µM (inactive)
- GI50 (OVCAR-5): 22.7 µM (inactive)
- GI50 (A498): 20.6 µM (inactive)
- GI50 (NCI-H460): 12.4 µM (inactive)
- GI50 (SNB-19): 18.3 µM (inactive)
- GI50 (MDA-N): 19.4 µM (inactive)
- GI50 (SW-620): 22.4 µM (inactive)
- GI50 (NCI-H23): 23.6 µM (inactive)
- GI50 (SK-MEL-28): 17.1 µM (inactive)
- GI50 (OVCAR-8): 20.5 µM (inactive)
- GI50 (PC-3): 17.7 µM (inactive)
- GI50 (SN12C): 21 µM (inactive)
- GI50 (MDA-MB-231): 18.7 µM (inactive)
- GI50 (COLO 205): 19.1 µM (inactive)
- GI50 (HCC 2998): 17.6 µM (inactive)
- GI50 (IGROV-1): 17.3 µM (inactive)
- GI50 (SNB-75): 17.9 µM (inactive)
- GI50 (Malme-3M): 41.1 µM (inactive)
- GI50 (HOP-62): 19.7 µM (inactive)

Compound: Nc1nc2cc3nc(N)c(N)nc3cc2nc1N
- GI50 (786-0): > 100 µM (inactive)
- GI50 (MOLT-4): 92.9 µM (inactive)
- GI50 (A549): > 100 µM (inactive)
- GI50 (ACHN): > 100 µM (inactive)
- GI50 (RPMI-8226): > 100 µM (inactive)
- GI50 (CAKI-1): > 100 µM (inactive)
- GI50 (KM12): > 100 µM (inactive)
- GI50 (HCT-15): > 100 µM
- GI50 (DU-145): > 100 µM (inactive)
- GI50 (TK-10): 80.5 µM (inactive)
- GI50 (HL-60): 30.1 µM (inactive)
- GI50 (U-251): > 100 µM (inactive)
- GI50 (MDA-MB-435): > 100 µM (inactive)
- GI50 (SF-539): > 100 µM (inactive)
- GI50 (SR): 71.8 µM (inactive)
- GI50 (NCI-H522): > 100 µM (inactive)
- GI50 (SK-OV-3): > 100 µM (inactive)
- GI50 (UO-31): > 100 µM (inactive)
- GI50 (UACC-257): > 100 µM (inactive)
- GI50 (LOX IMVI): > 100 µM (inactive)
- GI50 (NCI-H226): > 100 µM (inactive)
- GI50 (MCF7): > 100 µM (inactive)
- GI50 (EKVX): > 100 µM (inactive)
- GI50 (BT-549): > 100 µM (inactive)
- GI50 (RXF 393): > 100 µM (inactive)
- GI50 (SF-295): > 100 µM (inactive)
- GI50 (OVCAR-3): > 100 µM (inactive)
- GI50 (HT-29): > 100 µM (inactive)
- GI50 (SF-268): > 100 µM (inactive)
- GI50 (Hs-578T): > 100 µM (inactive)
- GI50 (SK-MEL-2): > 100 µM (inactive)
- GI50 (K562): > 10 µM (inactive)
- GI50 (CCRF-CEM): 64.3 µM (inactive)
- GI50 (M14): > 100 µM (inactive)
- GI50 (SK-MEL-5): > 100 µM (inactive)
- GI50 (HCT-116): 84.3 µM (inactive)
- GI50 (OVCAR-5): > 100 µM (inactive)
- GI50 (A498): > 100 µM (inactive)
- GI50 (NCI-H460): > 100 µM (inactive)
- GI50 (SNB-19): > 100 µM (inactive)
- GI50 (MDA-N): > 100 µM (inactive)
- GI50 (SW-620): > 100 µM (inactive)
- GI50 (NCI-H23): > 100 µM (inactive)
- GI50 (SK-MEL-28): > 100 µM (inactive)
- GI50 (UACC-62): > 100 µM (inactive)
- GI50 (OVCAR-8): > 100 µM (inactive)
- GI50 (PC-3): > 100 µM (inactive)
- GI50 (SN12C): > 100 µM (inactive)
- GI50 (MDA-MB-231): > 100 µM (inactive)
- GI50 (COLO 205): > 100 µM (inactive)
- GI50 (HCC 2998): > 100 µM (inactive)
- GI50 (IGROV-1): > 100 µM (inactive)
- GI50 (SNB-75): > 100 µM (inactive)
- GI50 (NCI/ADR-RES): > 100 µM (inactive)
- GI50 (Malme-3M): > 100 µM (inactive)

Compound: COc1ccc(-c2c(C(C)=O)c(-c3ccccc3)n(C3OC(COC(C)=O)C(OC(C)=O)C(OC(C)=O)C3OC(C)=O)c(=S)c2C#N)cc1O (centres undefined)
- GI50 (786-0): 36.5 µM (inactive) and 36.9 µM (inactive)
- GI50 (A549): 68.5 µM (inactive) and 44.9 µM (inactive)
- GI50 (ACHN): 40.8 µM (inactive) and 32.9 µM (inactive)
- GI50 (CAKI-1): 62.8 µM (inactive) and 49.7 µM (inactive)
- GI50 (KM12): 33.7 µM (inactive) and 19.1 µM (inactive)
- GI50 (HCT-15): 42.3 µM and 28 µM
- GI50 (DU-145): 37.8 µM (inactive) and 26.9 µM (inactive)
- GI50 (HL-60): 7.1 µM (inactive)
- GI50 (U-251): 91.8 µM (inactive) and 69.5 µM (inactive)
- GI50 (MDA-MB-435): 39.1 µM (inactive) and 32 µM (inactive)
- GI50 (NCI-H522): 17.6 µM (inactive) and 10.1 µM (inactive)
- GI50 (UO-31): 56.9 µM (inactive) and 36.4 µM (inactive)
- GI50 (UACC-257): 55.8 µM (inactive) and 34.9 µM (inactive)
- GI50 (LOX IMVI): 34.6 µM (inactive) and 23.2 µM (inactive)
- GI50 (MCF7): 28.6 µM (inactive) and 36.1 µM (inactive)
- GI50 (EKVX): 25.9 µM (inactive) and 34.6 µM (inactive)
- GI50 (BT-549): 33.7 µM (inactive)
- GI50 (RXF 393): 40.6 µM (inactive) and 42.1 µM (inactive)
- GI50 (SF-295): 64.4 µM (inactive) and 36.4 µM (inactive)
- GI50 (OVCAR-3): 29.4 µM (inactive) and 16.8 µM (inactive)
- GI50 (HT-29): 36.9 µM (inactive)
- GI50 (Hs-578T): 47.6 µM (inactive) and 70.5 µM (inactive)
- GI50 (K562): 47.9 µM (inactive) and 49.4 µM (inactive)
- GI50 (SK-MEL-5): 33.4 µM (inactive) and 30.1 µM (inactive)
- GI50 (HCT-116): 21.8 µM (inactive) and 36.2 µM (inactive)
- GI50 (OVCAR-5): > 100 µM (inactive) and 66.7 µM (inactive)
- GI50 (A498): > 100 µM (inactive)
- GI50 (SNB-19): 71.4 µM (inactive)
- GI50 (MDA-N): 27.5 µM (inactive) and 33.5 µM (inactive)
- GI50 (SW-620): 93.8 µM (inactive) and 91.6 µM (inactive)
- GI50 (NCI-H23): 35.4 µM (inactive) and 26 µM (inactive)
- GI50 (UACC-62): 38.7 µM (inactive) and 19.9 µM (inactive)
- GI50 (OVCAR-4): 31.8 µM (inactive) and 24.7 µM (inactive)
- GI50 (PC-3): 26.4 µM (inactive) and 41.4 µM (inactive)
- GI50 (SN12C): > 100 µM (inactive) and 52.1 µM (inactive)
- GI50 (HCC 2998): 24.1 µM (inactive) and 18.2 µM (inactive)
- GI50 (NCI/ADR-RES): 38.3 µM (inactive)
- GI50 (Malme-3M): 18.5 µM (inactive) and 16.4 µM (inactive)
